Source: the supplement of paper PMC10307832

Tests used:
Assay in all cases: relative viability (nuclei count vs DMSO), 5 days (fraction); higher = more cells survive
[1] = compound: O=C(O)c1ccc2c(c1)nc(Nc1cccc(Cl)c1)c1ccncc12 [Silmitasertib] + CS(=O)(=O)N1CCN(Cc2cc3nc(-c4cccc5[nH]ncc45)nc(N4CCOCC4)c3s2)CC1 [Pictilisib] (partner 1 µM)
Summary of the method: (§1)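 Lung cancer cell lines in 1536-well plates were dosed by pin tool the day after seeding, either with one drug alone or with a fixed anchor-drug dose plus five library-drug doses (not always all listed) in √10 steps. After 5 days, cells were fixed and their nuclei stained in one step (final 0.05% Triton X-100, 1% formaldehyde, 1 ug/ml Hoechst), then counted on 4× images. Relative viability is the nuclei count in treated wells divided by that in vehicle wells. Values are medians of duplicate plates.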

[2] = compound: O=C(O)c1ccc2c(c1)nc(Nc1cccc(Cl)c1)c1ccncc12 [Silmitasertib] + CC(=O)Nc1cccc(-n2c(=O)n(C3CC3)c(=O)c3c(Nc4ccc(I)cc4F)n(C)c(=O)c(C)c32)c1 [Trametinib] (partner 0.02 µM)
Summary of the method: as §1

[3] = compound: O=C(O)c1ccc2c(c1)nc(Nc1cccc(Cl)c1)c1ccncc12 [Silmitasertib] + CC(=O)c1c(C)c2cnc(Nc3ccc(N4CCNCC4)cn3)nc2n(C2CCCC2)c1=O [Palbociclib] (partner 0.5 µM)
Summary of the method: as §1

[4] = compound: O=C(O)c1ccc2c(c1)nc(Nc1cccc(Cl)c1)c1ccncc12 [Silmitasertib] + CCNC(=O)c1noc(-c2cc(C(C)C)c(O)cc2O)c1-c1ccc(CN2CCOCC2)cc1 [Luminespib] (partner 0.01 µM)
Summary of the method: as §1

[5] = compound: O=C(O)c1ccc2c(c1)nc(Nc1cccc(Cl)c1)c1ccncc12 [Silmitasertib] + CS(=O)(=O)CCNCc1ccc(-c2ccc3ncnc(Nc4ccc(OCc5cccc(F)c5)c(Cl)c4)c3c2)o1 [Lapatinib] (partner 2 µM)
Summary of the method: as §1

Row | Cell Line | relative viability ([1]; first compound 0.04 µM) | relative viability ([1]; first compound 0.4 µM) | relative viability ([1]; first compound 1.265 µM) | relative viability ([1]; first compound 4 µM) | relative viability ([2]; first compound 0.04 µM) | relative viability ([2]; first compound 1.265 µM) | relative viability ([2]; first compound 4 µM) | relative viability ([3]; first compound 0.04 µM) | relative viability ([3]; first compound 1.265 µM) | relative viability ([3]; first compound 4 µM) | relative viability ([4]; first compound 0.04 µM) | relative viability ([4]; first compound 1.265 µM) | relative viability ([4]; first compound 4 µM) | relative viability ([5]; first compound 0.04 µM) | relative viability ([5]; first compound 0.4 µM) | relative viability ([5]; first compound 1.265 µM) | relative viability ([5]; first compound 4 µM) | relative viability ([2]; first compound 0.4 µM) | relative viability ([3]; first compound 0.4 µM) | relative viability ([4]; first compound 0.4 µM)
1 | NCI-H1975 | 0.313 | 0.25 | 0.207 | 0.208 | 0.613 | 0.297 | 0.315 | 0.645 | 0.192 | 0.499 | 0.199 | 0.184 | 0.136 | 0.901 | 0.731 | 0.719 | 0.739 |  |  | 
2 | NCI-H1993 | 0.818 | 0.818 | 0.854 | 0.916 | 0.584 | 0.578 | 0.586 | 0.57 | 0.525 | 0.44 | 0.874 | 0.621 | 0.617 | 0.815 | 0.753 | 0.887 | 0.803 | 0.609 | 0.576 | 0.697
3 | NCI-H2009 | 1.07 | 0.701 | 0.427 | 0.244 | 0.342 | 0.254 | 0.239 | 0.234 | 0.193 | 0.203 | 1.06 | 0.971 | 0.604 | 1.04 | 0.636 | 0.85 | 0.341 | 0.271 | 0.199 | 1.1
4 | NCI-H2023 | 0.275 | 0.275 | 0.194 | 0.179 | 0.728 | 0.373 | 0.535 | 0.336 | 0.337 | 0.354 | 0.746 | 0.683 | 0.684 | 1.05 | 0.373 | 0.767 | 0.159 | 0.569 | 0.458 | 0.535
5 | NCI-H2085 | 0.474 | 0.547 | 0.453 | 0.457 | 0.641 | 0.423 | 0.386 | 0.461 | 0.473 | 0.439 | 0.409 | 0.422 | 0.386 | 0.916 | 0.509 | 0.674 | 0.507 | 0.454 | 0.446 | 
6 | NCI-H2087 | 0.997 | 0.513 | 0.577 | 0.347 | 0.26 | 0.135 | 0.134 | 0.217 | 0.18 | 0.139 | 0.148 | 0.179 | 0.142 | 0.924 | 0.753 | 0.727 | 0.377 | 0.186 | 0.224 | 
7 | NCI-H2126 | 0.512 | 0.508 | 0.45 | 0.454 | 0.578 | 0.467 | 0.501 | 0.357 | 0.356 | 0.349 | 0.915 | 0.777 | 0.853 | 0.803 | 0.759 | 0.691 | 0.544 | 0.521 | 0.353 | 0.901
8 | NCI-H2170 | 0.32 | 0.259 | 0.31 | 0.269 | 0.918 | 0.833 | 0.821 | 0.371 | 0.363 | 0.344 | 0.657 | 0.656 | 0.707 | 0.292 | 0.258 | 0.276 | 0.274 | 0.661 | 0.284 | 0.593
9 | NCI-H2228 | 0.505 | 0.312 | 0.367 | 0.305 | 0.554 | 0.456 | 0.464 | 1.02 | 0.467 | 0.701 | 0.178 | 0.145 | 0.135 | 1.16 | 0.944 | 1.03 | 1 | 0.375 | 0.313 | 
10 | NCI-H2347 | 0.739 | 0.829 | 0.665 | 0.82 | 0.264 | 0.277 | 0.266 | 0.43 | 0.38 | 0.394 | 0.28 | 0.48 | 0.236 | 0.944 | 0.77 | 0.759 | 0.508 | 0.263 | 0.418 | 
11 | NCI-H2405 | 0.586 | 0.388 | 0.379 | 0.28 | 0.681 | 0.619 | 0.775 | 0.574 | 0.425 | 0.536 | 0.75 | 0.757 | 0.71 | 1.51 | 0.903 | 0.844 | 0.562 | 0.605 | 0.501 | 0.507
12 | NCI-H3122 | 0.694 | 0.53 | 0.634 | 0.644 | 0.204 | 0.212 | 0.264 | 0.219 | 0.172 | 0.155 | 0.104 | 0.0992 | 0.123 | 1.07 | 0.975 | 1.07 | 1.08 | 0.174 | 0.17 | 0.0852
13 | PC-3 [JPC-3] | 0.837 | 0.672 | 0.586 | 0.708 | 0.716 | 0.795 | 0.632 | 0.544 | 0.615 | 0.585 | 0.716 | 0.746 | 0.654 | 0.51 | 0.417 | 0.458 | 0.303 | 0.661 | 0.544 | 0.571
14 | PC-14 | 0.629 | 0.661 | 0.566 | 0.646 | 1.07 | 0.802 | 0.633 | 0.581 | 0.553 | 0.541 | 0.188 | 0.14 | 0.179 | 0.325 | 0.347 | 0.381 | 0.391 |  |  | 
15 | RERF-LC-KJ | 0.629 | 0.494 | 0.366 | 0.323 | 0.926 | 0.661 | 0.541 | 1.16 | 0.758 | 0.798 | 1.24 | 1.08 | 0.633 | 0.859 | 0.819 | 0.767 | 0.516 | 0.722 | 0.993 | 1.19
16 | SK-LU-1 | 0.685 | 0.448 | 0.359 | 0.212 | 0.733 | 0.298 | 0.289 | 0.424 | 0.245 | 0.312 | 0.21 | 0.187 | 0.179 | 0.995 | 0.649 | 0.369 | 0.388 | 0.46 | 0.342 | 0.204
